Reference: patent publication US20070118999A1, “Compositions suitable for the treatment of hair comprising chelants and methods for reducing oxidative hair damage” (The Procter & Gamble Company, priority 2001, published 2007)

Tests used:
[1] = 5-Cycle Oxidative Hair Treatment Protocol with FT-IR Damage Assessing Protocol; parameters: species or system human; details: for Damage benefit vs EDTA 2% / Damage after 5 cycles (cysteic acid units): 5 bleaching cycles, pH 10, 1.9% EDDS, 2.0% HEDP, 2.65% DTPA, 3.8% DTPMP; for Damage after 5 cycles (cysteic acid units): 2% EDTA, sodium salts used; for oxidative hair damage prevention (in words): real conditions of use: pH 10, non-deionized water with Cu^2+ and Ca^2+
Method: A bleaching composition comprising the chelant to be tested is prepared by mixing in equal weight amounts a hydrogen peroxide emulsion base and an alkaline (high pH) emulsion base. The hydrogen peroxide emulsion base contains: […] 2 g of the bleaching composition per g of hair to be treated was applied on the hair switches and massaged in thoroughly. The hair switches were then wrapped in a plastic film and put in an oven at 30° C. […] The excess water was then squeezed out of the hair, and the hair dried with a fan. […] Prell® shampoo was using during these tests. This Oxidative Hair Treatment Protocol can be repeated several times. When damage is measured according to the FT-IR Damage Assessing Protocol (described below) the Oxidative Hair Treatment Protocol is preferably repeated 5 times and this process is described as a 5-Cycle Oxidative Hair Treatment Protocol. Damage caused to the hair was assessed by the FT-IR (Fourier Transform Infrared) method, which has been established to be suitable for studying the effects of oxidative treatments on hair (Strassburger, J., J. Soc. Cosmet. Chem., 36, 61-74 (1985); Joy, M. & Lewis, D. M., Int. J. Cosmet. Sci., 13, 249-261 (1991); Signori, V. & Lewis, D. M., Int. J. Cosmet. Sci., 19, 1-13 (1997)). In particular, these authors have shown that the method is suitable for quantifying the amount of cysteic acid that is produced from the oxidation of cystine. In general, the oxidation of cystine is thought to be a suitable marker by which to monitor the overall oxidation of the keratinous part of the fiber. Signori & Lewis (D. M., Int. J. Cosmet. […] They have shown that this technique is more suitable than using the FT-IR method in simple transmission or microscope modes. […] The detailed description of the method used for testing the different damage inhibitors follows thereafter: […] In this method, hair switches of various sizes and colours can be used. The switches were […] per cm) in order to minimize variations in surface area of contact between readings. The Oxidative Hair Treatment Protocol described above was repeated for 5 cycles to mimic the behavior of hair after repeated bleaching cycles. Following this treatment, four readings per switch were taken ( 1/3 and 2/3s down the switch on both sides), and an average calculated. Backgrounds were collected every 4 readings, and an ATR cell pressure of IN/m was employed. The cell was cleaned with ethanol between each reading, and a contamination check performed using the monitor ratio mode of the instrument. As prescribed by Signori & Lewis in 1997, a normalized double derivative analysis routine was used. […] This normalized absorbance was then twice derivatised using a 13 point averaging. […] The following instrumental conditions were employed: […] The corresponding weight percentage is indicated in the first line of the table below. The tri-sodium salt of EDDS, tetra-sodium salt of EDTA, di-sodium salt of HEDP, penta-sodium salt of DTPA and tetra-sodium salt of DTPMP were used. EDTA and DTPA are commonly used in hair care compositions. HEDP was cited in U.S. Pat. […] DPTMP is another phosphonate chelant. […] Damage and lightening effects were assessed after 5 cycles according to the test method described above (“Oxidative hair treatment protocol”). Human hair is often bleached or dyed 5 times or more during its life, which makes this 5 cycle test very meaningful.

[2] = 1:1 complexes, fully deprotonated chelants; 25deg, 0.1M ionic strength; cited from earlier work
[3] = 1:1 complexes, fully deprotonated chelants; 25deg, 0.1M ionic strength; cited from earlier work; remark: listed apart in the source
[4] = log Conditional Stability Constant at pH 10 with Cu; format: physicochemical
Description: The Conditional Stability Constant is a parameter commonly used in the art to practically assess the stability of metal-chelant complex at a given pH.

[5] = Hydrogen Peroxide Decomposition Ratio Measurement Protocol
Method: The Hydrogen Peroxide Decomposition Ratio Measurement Protocol is defined as follows: 6.0% by weight of concentrated ammonium hydroxide (30% active ammonia) is added to deionised water and the pH of the solution is adjusted to 10 using acetic acid. 300 ppm of copper sulphate and 0.026M of the chelant to be tested are added to said composition. […] The initial level of hydrogen peroxide is measured at this moment (t=0); the final level of hydrogen peroxide is measured after 30 minutes. The value of the ratio of the hydrogen peroxide concentration at t=0 and at t=30 mn is the Hydrogen Peroxide Decomposition Ratio (% Loss).
The initial and final level of hydrogen peroxide can be measured according to any standard technique. The following is a well-known and standard technique that was used by the inventors: 0.2-0.3 g (the exact quantity being precisely measured) of the solution to be titrated is added to 40 ml of 10% acetic acid. […] The level of hydrogen peroxide (% Peroxide) is then calculated from the following equation: [formula]
Three replicate runs are made at both t=0 and t=30 mn and then averaged to calculate the Hydrogen Peroxide Decomposition Ratio (% Loss).

Compound: O=P(O)(O)CN(CCN(CP(=O)(O)O)CP(=O)(O)O)CCN(CP(=O)(O)O)CP(=O)(O)O [DTPMP, diethylenetriamine-N,N,N′,N″,N″-penta(methylene phosphonate)]
- Damage benefit vs EDTA 2% [1]: +14%
- log K Cu [2]: 19.5
- log K Ca [3]: 7.1

Compound: O=C(O)CC(NCCNC(CC(=O)O)C(=O)O)C(=O)O (stereo not drawn) [EDDS, ethylenediamine-N,N′-disuccinic acid]
- Ratio Cu/Ca (log KCuL/log KCaL) [4]: 3.76
- Hydrogen Peroxide Decomposition Ratio (% Loss) ([5]; pH 10, 300 ppm copper sulphate, 0.026M chelant, 30 minutes): 1.5%
- Damage after 5 cycles (cysteic acid units) [1]: 110 cysteic acid units
- Damage benefit vs EDTA 2% [1]: +33%
- oxidative hair damage prevention (in words) [1]: much less damage than hair treated with any other chelant
- log K Cu [2]: 18.35
- log K Ca [3]: 4.58

Compound: O=C(O)CN(CCN(CC(=O)O)CC(=O)O)CC(=O)O [EDTA, ethylenediaminetetraacetic acid]
- capacity at inhibiting the red-ox chemistry of copper (in words) [5]: very good capacity at inhibiting the red-ox chemistry of copper
- oxidative hair damage prevention (in words) [1]: very poor damage prevention properties
- log K Cu [2]: 18.78
- log K Ca [3]: 10.65

Compound: CC(O)(P(=O)(O)O)P(=O)(O)O [HEDP, 1-hydroxyethane-1,1-diphosphonic acid]
- Ratio Cu/Ca (log KCuL/log KCaL) [4]: 1.75
- Damage benefit vs EDTA 2% [1]: +1%
- log K Cu [2]: 11.84
- log K Ca [3]: 6.0

Compound: diethylenetriaminepentaacetate [DTPA]
- Ratio Cu/Ca (log KCuL/log KCaL) [4]: 1.85
- log Conditional Stability Constant (pH 10) Cu [4]: 18.78
- Damage after 5 cycles (cysteic acid units) [1]: 147 cysteic acid units
- Damage benefit vs EDTA 2% [1]: +11%
- log K Cu [2]: 21.4
- log K Ca [3]: 10.75
